Results from ChEMBL document CHEMBL1146080, “Novel, achiral 1,3,4-benzotriazepine analogues of 1,4-benzodiazepine-based CCK(2) antagonists that display high selectivity over CCK(1) receptors” (J Med Chem, 2006).
Activity calls are given as the source filed them. The calls are words filed in the database; no cut-off is given here.

Tests used:
[1] = biological target: T1, Cholecystokinin receptor type A (Homo sapiens, UniProt P32238); experiment: Displacement of [3H]L-364718 from human recombinant CCK1 receptor expressed in CHO cell line; assay type: cell-based
T1 sequence (P32238 whole entry): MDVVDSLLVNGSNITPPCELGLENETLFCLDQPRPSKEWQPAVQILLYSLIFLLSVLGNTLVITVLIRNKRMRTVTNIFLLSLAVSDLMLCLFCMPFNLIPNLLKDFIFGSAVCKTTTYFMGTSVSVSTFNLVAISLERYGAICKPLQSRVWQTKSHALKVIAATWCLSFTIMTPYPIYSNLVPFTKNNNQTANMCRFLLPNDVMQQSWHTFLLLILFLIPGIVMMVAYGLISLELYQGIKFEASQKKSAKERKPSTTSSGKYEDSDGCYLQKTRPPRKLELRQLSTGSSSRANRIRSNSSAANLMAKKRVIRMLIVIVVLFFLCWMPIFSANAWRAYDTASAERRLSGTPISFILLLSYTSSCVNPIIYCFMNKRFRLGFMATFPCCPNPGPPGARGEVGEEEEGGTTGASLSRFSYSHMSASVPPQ

[2] = biological target: T2, Gastrin/cholecystokinin type B receptor (Homo sapiens, UniProt P32239); experiment: Displacement of [125I]BH-CCK-8S from human recombinant CCK2 receptor expressed in NIH3T3 cells; assay type: cell-based
T2 sequence (P32239 whole entry): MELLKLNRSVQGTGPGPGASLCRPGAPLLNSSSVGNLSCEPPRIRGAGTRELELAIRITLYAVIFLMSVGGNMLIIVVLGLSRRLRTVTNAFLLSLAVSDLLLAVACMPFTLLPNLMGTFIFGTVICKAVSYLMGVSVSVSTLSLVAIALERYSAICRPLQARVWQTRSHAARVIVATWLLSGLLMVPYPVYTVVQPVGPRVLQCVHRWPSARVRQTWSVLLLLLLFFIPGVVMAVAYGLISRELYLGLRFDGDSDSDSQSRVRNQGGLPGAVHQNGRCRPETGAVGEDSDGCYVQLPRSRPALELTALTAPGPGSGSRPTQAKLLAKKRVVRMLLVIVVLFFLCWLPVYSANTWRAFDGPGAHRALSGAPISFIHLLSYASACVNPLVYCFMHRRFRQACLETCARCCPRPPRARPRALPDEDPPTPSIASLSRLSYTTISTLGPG

[3] = biological target: T3, Gastrin/cholecystokinin type B receptor (Rattus norvegicus, UniProt P30553); experiment: Affinity for CCK2 receptor assessed by inhibition of pentagastrin-stimulated acid secretion in perfused rat stomach; assay type: functional, tissue-based; details: read-out: pA2 (converted)
T3 sequence (P30553 whole entry): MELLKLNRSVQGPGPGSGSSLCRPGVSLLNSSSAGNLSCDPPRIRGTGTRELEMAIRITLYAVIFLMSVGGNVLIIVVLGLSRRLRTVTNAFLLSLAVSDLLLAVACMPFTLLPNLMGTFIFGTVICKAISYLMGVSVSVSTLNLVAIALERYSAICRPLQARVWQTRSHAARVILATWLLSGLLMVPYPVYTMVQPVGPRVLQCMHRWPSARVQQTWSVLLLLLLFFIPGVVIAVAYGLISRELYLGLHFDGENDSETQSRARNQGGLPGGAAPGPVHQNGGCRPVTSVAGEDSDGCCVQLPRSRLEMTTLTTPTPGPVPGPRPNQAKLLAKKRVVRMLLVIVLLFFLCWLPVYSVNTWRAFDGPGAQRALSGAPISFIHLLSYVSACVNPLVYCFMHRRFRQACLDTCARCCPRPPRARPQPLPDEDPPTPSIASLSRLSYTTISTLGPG

[4] = biological target: T1, Cholecystokinin receptor type A; experiment: Displacement of [3H]L-364718 from human recombinant CCK1 receptor expressed in PC3 cell line; assay type: cell-based, PC-3
[5] = biological target: T4, Cholecystokinin receptor type A (Homo sapiens) (UniProt P32238); experiment: Inhibition of [3H]L-364718 binding to human recombinant CCK1 receptor expressed in PC3 cell line at 10 uM; assay type: cell-based; details: PC-3
T4 sequence (whole entry): T1 sequence (P32238 whole entry)

[6] = biological target: T5, Gastrin/cholecystokinin type B receptor (Rattus norvegicus) (UniProt P30553); experiment: Affinity for CCK2 receptor assessed by inhibition of pentagastrin-stimulated acid secretion in perfused rat stomach at 1 uM; assay type: functional, tissue-based
T5 sequence (whole entry): T3 sequence (P30553 whole entry)

[7] = biological target: T4, Cholecystokinin receptor type A (Homo sapiens); experiment: Inhibition of [3H]L-364718 binding to human recombinant CCK1 receptor expressed in CHO cell line at 10 uM; assay type: cell-based
[8] = biological target: T6, Gastrin/cholecystokinin type B receptor (Canis lupus familiaris, UniProt P30552); experiment: Binding affinity to canine CCK2 receptor
T6 sequence (P30552 whole entry): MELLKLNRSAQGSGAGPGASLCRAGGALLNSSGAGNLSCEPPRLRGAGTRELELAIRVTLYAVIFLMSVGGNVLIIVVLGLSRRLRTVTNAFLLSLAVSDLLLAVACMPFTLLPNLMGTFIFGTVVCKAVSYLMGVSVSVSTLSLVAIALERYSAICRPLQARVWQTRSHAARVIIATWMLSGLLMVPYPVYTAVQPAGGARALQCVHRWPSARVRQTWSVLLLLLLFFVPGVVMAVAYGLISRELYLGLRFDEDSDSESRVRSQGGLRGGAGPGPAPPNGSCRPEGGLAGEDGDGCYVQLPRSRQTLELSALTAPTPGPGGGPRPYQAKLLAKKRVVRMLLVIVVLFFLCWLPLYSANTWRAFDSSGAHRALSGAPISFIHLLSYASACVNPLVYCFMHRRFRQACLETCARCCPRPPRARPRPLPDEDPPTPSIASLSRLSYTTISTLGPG

SMILES | Ki [2] | Ki [4] | further results
CNc1cccc(NC(=O)C[C@H]2N=C(C3CCCCC3)c3ccccc3N(CC(=O)C(C)(C)C)C2=O)c1 | 13.2 nM | 724 nM | Kb [3]: 28.8 nM
CC(C)(C)C(=O)CN1C(=O)N(CC(=O)Nc2cccc(-n3ccnc3)c2)N=C(C2CCCCC2)c2ccccc21 | 9.12 nM |  | inhibition [7]: 57%
COc1cccc(NC(=O)CN2N=C(C3CCCCC3)c3ccccc3N(CC(=O)C(C)(C)C)C2=O)c1 | 5.5 nM |  | pA2 [6]: inactive; inhibition [7]: 46%
CC(C)(C)C(=O)CN1C(=O)N(CC(=O)Nc2cccc(CO)c2)N=C(C2CCCCC2)c2ccccc21 | 15.1 nM | 5890 nM | 
CNc1cccc(NC(=O)CN2N=C(c3ccccc3)c3ccccc3N(CC(=O)C(C)(C)C)C2=O)c1 | 74.1 nM |  | inhibition [5]: 21%
CNc1cccc(NC(=O)CN2N=C(c3ccccn3)c3ccccc3N(CC(=O)C(C)(C)C)C2=O)c1 | 195 nM |  | inhibition [5]: 22%; Kb [3]: 224 nM
CC(C)(C)C(=O)CN1C(=O)N(CC(=O)Nc2cccc(N)c2)N=C(C2CCCCC2)c2ccccc21 | 26.9 nM |  | inhibition [7]: 40%
CNc1cccc(NC(=O)CN2N=C(c3ccccn3)c3ccccc3N(CC(=O)c3ccccc3C)C2=O)c1 | 288 nM |  | 
CC(C)(C)C(=O)CN1C(=O)N(CC(=O)Nc2cccc(O)c2)N=C(C2CCCCC2)c2ccccc21 | 13.2 nM |  | Ki [1]: 1510 nM
CNc1cccc(NC(=O)N[C@@H]2N=C(c3ccccn3)c3ccccc3N(CC(=O)C(C)(C)C)C2=O)c1 [NETAZEPIDE] | 0.138 nM | 30.2 nM | Kb [3]: 0.0794 nM
CC(C)(C)C(=O)CN1C(=O)N(CC(=O)Nc2cccc(N3CCCC3)c2)N=C(C2CCCCC2)c2ccccc21 | 15.8 nM | > 10000 nM | 
CNc1cccc(NC(=O)C[C@@H]2N=C(C3CCCCC3)c3ccccc3N(CC(=O)C(C)(C)C)C2=O)c1 | 6.03 nM | 1170 nM | Kb [3]: 28.2 nM
CC(C)(C)C(=O)CN1C(=O)N(CC(=O)Nc2cccc(N3CCOCC3)c2)N=C(C2CCCCC2)c2ccccc21 | 16.6 nM |  | inhibition [7]: 42%
Cc1cccc(NC(=O)N[C@@H]2N=C(c3ccccc3)c3ccccc3N(C)C2=O)c1 [L-365260] |  | 174 nM | 

More lines, main results first:

Ki [2] | Ki [4] | SMILES | further results
29.5 nM |  | CNCCN(C)c1cccc(NC(=O)CN2N=C(C3CCCCC3)c3ccccc3N(CC(=O)C(C)(C)C)C2=O)c1 | Ki [1]: 8710 nM
8.91 nM |  | Cc1cccc(NC(=O)CN2N=C(C3CCCCC3)c3ccccc3N(CC(=O)C(C)(C)C)C2=O)c1 | inhibition [5]: 27%; pA2 [6]: inactive
2510 nM |  | CNc1cccc(NC(=O)CN2N=C(c3ccccn3)c3ccccc3N(CC(=O)N3CCCC3)C2=O)c1 | 
44.7 nM | > 10000 nM | CCOCCNc1cccc(NC(=O)CN2N=C(C3CCCCC3)c3ccccc3N(CC(=O)C(C)(C)C)C2=O)c1 | 
7.94 nM | > 10000 nM | CNc1cccc(NC(=O)CN2N=C(C3CCCCC3)c3ccccc3N(CC(=O)C(C)(C)C)C2=O)c1 | 
6.03 nM |  | CN(C)c1cccc(NC(=O)CN2N=C(C3CCCCC3)c3ccccc3N(CC(=O)C(C)(C)C)C2=O)c1 | inhibition [5]: 16%
5.13 nM | 11200 nM | CC(C)(C)C(=O)CN1C(=O)N(CC(=O)Nc2cccc(C(=O)O)c2)N=C(C2CCCCC2)c2ccccc21 | Ki [8]: 12.3 nM; Kb [3]: 0.977 nM
